Measured values: publication PMC9732521, “Molecular mechanism of GylR-mediated regulation of glycerol metabolism in Streptomyces clavuligerus NRRL 3585” (Frontiers in Microbiology, 2022)

What was measured:
[1] = target: T1, GylR (Streptomyces clavuligerus, UniProt E2PWC0); test: EMSA, dissociation of GylR from DNA probe BS2; type: binding; settings: effector (inducer), 50 mM HEPES pH 7.5, 5 mM MgCl2, 25 °C
T1 construct: gene SCLAV_0876; coding region of gylR in pET-30a (NdeI/XhoI), C-terminal His6 tag, E. coli Rosetta (DE3), Ni-NTA; dimer by SEC
T1 sequence (E2PWC0 entry or part of it): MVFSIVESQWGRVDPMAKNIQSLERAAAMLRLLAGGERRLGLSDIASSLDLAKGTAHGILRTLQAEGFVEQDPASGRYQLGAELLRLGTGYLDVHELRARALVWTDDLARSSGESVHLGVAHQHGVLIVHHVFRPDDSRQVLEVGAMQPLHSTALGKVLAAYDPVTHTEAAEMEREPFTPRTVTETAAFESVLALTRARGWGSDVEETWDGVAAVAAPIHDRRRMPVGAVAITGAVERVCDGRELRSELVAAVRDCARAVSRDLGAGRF

[2] = target: GylR (IclR family transcriptional regulator) of Streptomyces clavuligerus NRRL 3585, C-terminal His6-tagged (Streptomyces clavuligerus NRRL 3585); test: SEC; TSKgel G3000 SWxl column (7.8 x 300 mm) on HPLC, 0.1 M Na2SO4 (pH 6.7), 0.5 ml/min; bovine serum albumin, ovalbumin and AlpJ as molecular weight standards

Compound	EMSA, dissociation of GylR from DNA probe BS2 [1]	stoichiometry N [2]
O=C(CO)COP(=O)(O)O [DHAP, dihydroxyacetone phosphate]	both G3P and DHAP were capable of inducing the dissociation of GylR from BS2	
GylR (IclR family transcriptional regulator) of Streptomyces clavuligerus NRRL 3585, C-terminal His6-tagged (natural protein)		2
O=P(O)(O)OC[C@H](O)CO [G3P, glycerol-3-phosphate]	both G3P and DHAP were capable of inducing the dissociation of GylR from BS2	
